“Also recorded” adds a separate entry of the source. Where two headings read alike, the source gives them in different places.
What was measured:
[1] = system: ER+ and ER- breast carcinoma cells; details: cited from earlier work
[2] = system: tumor cells; details: cited from earlier work; for Differentiation of certain tumor cells (in words): in vitro
[3] = system: tumors; details: cited from earlier work
[4] = cited from earlier work
[5] = system: human carcinoma cells; details: in vitro; cited from earlier work
[6] = system: ZR-75-1 cells; assay: Apoptosis: cell death detection by ELISA, ZR-75-1; format: cell-based, human; details: for fold induction at 10 µM / fold induction at 1 µM / fold induction at 3.3 µM: Homo sapiens
Method: ER+ breast carcinoma, human (ZR-75-1) obtained from ATCC (CRL 1500), were grown in Gibco's RPMI 1640 media supplemented with sodium pyruvate, 10% FBS and 13 ng/mL gentamicin. Cells were incubated at 37° C., 4.5% CO2 and 95.5% humidified air.
(§1) 2. Apoptosis: Cell death detection by ELISA:
(§2) Compounds of formula 1 were tested for the ability to cause apoptosis as follows:
(§3) Cells and media were collected, cells were pelleted, resuspended in 100 μl lysis buffer (50 mM Tris-Cl (pH=8.0), 20 mM EDTA, 1% NP-40e) and incubated 30 minutes at 4° C. to lyse. Cell debris was spun down and an aliquot (30 μl) of the […] was removed for protein determination and stored at -20° C. An additional 280 μl of lysis buffer, was added, mixed thoroughly and spun down at 14,000 RPM for 10 minutes at 4° C. An aliquot was removed (180 μl) and the sample was stored at -20° C. until testing.
(§4) A commercially available apoptosis detection kit, obtained from Boehringer Mannheim (Cat. No. 1544-674), was used as per the directions provided with the kit (Cell Death Detection ELISA). However, the protocol was modified in that a 1:40 to 1:100 dilution of sample was prepared, rather than the recommended 1:10 dilution, due to the increase in cell number used to prepare the sample extract and the subsequent increase in ELISA reactivity. The assay measures apoptosis by quantifying the amount of nucleosomal fragmentation from the extracts of cells treated with the test compounds (samples). These nucleosomal fragments, generated by the activation of endonucleases, are a known downstream effector of apoptosis. Antihistone antibodies are used to fix any nucleosomal fragments in the sample to the well of the microtiter plates. The sample is then incubated with anti-DNA antibodies conjugated to peroxidase and subsequently incubated with the peroxidase substrate, ABTS. The resulting colorimetric change is measured spectrophotometrically at 405/490nm.
(§5) The total protein content of each sample was determined for the purpose of normalizing the ELISA values to amount of sample loaded. Microplate assay protocol described in the instruction manual, for (Biorad DC Assay, Cat.#500-0116) section 5.2. The protein concentrations were calculated based upon a linear regression curve.
(§6) d) ELISA assay calculations
(§7) Relative ELISA O.D. readings are determined by subtracting the ELISA plate background O.D. value. No drug control O.D. value (lysis buffer only) was subtracted from sample O.D. value. A correction coefficient (CC), based on the sample protein concentration compared to no drug control, was determined to correct the sample O.D. following subtraction of the background O.D. (BCS O.D.). The fold increase over no drug control is calculated and normalized to the total protein concentration of the samples by multiplying against the correction coefficient.
(§8) To determine the fold increase in ELISA O.D., obtain the following O.D. measurements:
(§9) ELISA plate background--lysis buffer only (EPB);
(§10) no drug treated control--cell sample treated with DMSO (NDT);
(§11) drug treated sample--cell sample treated with a compound of formula 1 (DT) Subtract EPB from NDT (NDT-EPB) and DT (DT-EPB). The fold increase of the treated over the control is then (DT-EPB)/(NDT-EPB).
(§12) To determine the total protein concentration of the samples, obtain the total protein concentration in mg/ul calculated using standard linear regression formula (y=mx+b) based on BSA standards. B=ELISA background. Protein concentration (PC)(mg/ml)=(sample absorbance-b)/x.
(§13) Correction coefficient (cc) is (NDT)(PC)/(DT)(PC).
(§14) Determine fold increase of ELISA (FT) normalized to total PC:
(§15) nDT is DT×cc (which is DT O.D. normalized to PC)
(§16) nNDT is NDT×cc (which is NDT O.D. normalized to PC)
(§17) FI normalized to PC is nDT/nNDT.

[7] = system: MDA-435 cells; assay: Apoptosis: cell death detection by ELISA, MDA-435; format: cell-based, human; details: for Fold induction of apoptosis, internal positive control (cont.) / fold induction at 10 µM: 10 uM; for fold induction at 10 µM / fold induction at 1 µM / fold induction at 3.3 µM: Homo sapiens
Method: ER- breast carcinoma, human (MDA-435) obtained from Dr. Janet Price, MDA Cancer Center, Houston, Tex., were grown in Gibco's RPMI 1640 media supplemented with sodium pyruvate, 10% FBS and 13 ng/mL gentamicin. Cells were incubated at 37° C., 4.5% CO2 and 95.5% humidified air.
as §1, §2, §3, §4, §5, §6, §7, §8, §9, §10, §11, §12, §13, §14, §15, §16, §17

[8] = system: RKO cells; assay: Apoptosis: cell death detection by ELISA, RKO (colorectal carcinoma); format: cell-based, human; details: Homo sapiens, RKO, 10 uM, read-out: Fold induction of apoptosis, internal positive control (cont.)
Method: Colorectal carcinoma, human (RKO) obtained from Dr. Bernie Vogelstein, were grown in Gibco's Delbecco Minimum Essential media (DMEM), high glucose, supplemented with sodium pyruvate, 10% FBS and 13 ng/mL gentamicin. Cells were incubated at 37° C., 4.5% CO2 and 95.5% humidified air.
as §1, §2, §3, §4, §5, §6, §7, §8, §9, §10, §11, §12, §13, §14, §15, §16, §17

[9] = system: H1299 cells; assay: Apoptosis: cell death detection by ELISA, H1299 (lung large cell carcinoma); format: cell-based; details: Homo sapiens, NCI-H1299, 10 uM, read-out: Fold induction of apoptosis, internal positive control (cont.)
Method: Lung, large cell carcinoma, human (H1299), obtained from ATCC (CRL-5803), were grown in Gibco's Delbecco Minimum Essential media (DMEM), high glucose, supplemented with sodium pyruvate, 10% FBS and 13 ng/mL gentamicin. Cells were incubated at 37° C., 4.5% CO2 and 95.5% humidified air.
as §1, §2, §3, §4, §5, §6, §7, §8, §9, §10, §11, §12, §13, §14, §15, §16, §17

[10] = system: retinoic acid X α, β and γ receptors (RXR); details: cited from earlier work
[11] = system: RAR α, β and γ receptors; details: cited from earlier work
[12] = system: ER+ and ER- breast carcinoma cells; assay: Induction of apoptosis in ER+ and ER- carcinoma cells (statements in words); format: cell-based, human
Method: as §1, §2, §3
A commercially available apoptosis detection kit, obtained from Boehringer Mannheim (Cat. No. 1544-674), was used as per the directions provided with the kit (Cell Death Detection ELISA). […] The assay measures apoptosis by quantifying the amount of nucleosomal fragmentation from the extracts of cells treated with the test compounds (samples). […] The resulting colorimetric change is measured spectrophotometrically at 405/490nm.
The total protein content of each sample was determined for the purpose of normalizing the ELISA values to amount of sample loaded. […] The protein concentrations were calculated based upon a linear regression curve. […]
as §7, with “No drug control O.D. value (lysis buffer only) was subtracted from sample O.D. value.” left out, “coefficient. […]” for “coefficient.”
To determine the total protein concentration of the samples, obtain the total protein concentration in mg/ul calculated using standard linear regression formula (y=mx+b) based on BSA standards. […] Protein concentration (PC)(mg/ml)=(sample absorbance-b)/x. […]

[13] = ZR-75-1, 24 h, 24 hrs, read-out: Fold induction of apoptosis compared to no drug control
[14] = ZR-75-1, 48 h, 48 hrs, read-out: Fold induction of apoptosis compared to no drug control
[15] = ZR-75-1, 72 h, 72 hrs, read-out: Fold induction of apoptosis compared to no drug control
[16] = MDA435, 24 h, 24 hrs, read-out: Fold induction of apoptosis compared to no drug control
[17] = MDA435, 48 h, 48 hrs, read-out: Fold induction of apoptosis compared to no drug control
[18] = MDA435, 72 h, 72 hrs, read-out: Fold induction of apoptosis compared to no drug control

SMILES: CC1=C(/C=C/C(C)=C/C=C/C(C)=C/C(=O)Nc2ccc(O)cc2)C(C)(C)CCC1 [4-HPR, all trans 4-hydroxyphenyl retinamide]
- Growth inhibition and apoptosis in breast carcinoma cells (in words) [1]: capable of inhibiting cell growth and inducing apoptosis; also recorded: appears to induce apoptosis and cause inhibition of cell growth
- Induction of apoptosis in retinoid-resistant cells (in words) ([2]; cells resistant to retinoids that activate RARs efficiently): effective in inducing apoptosis
- Growth inhibition and apoptosis in other tumor cell types (in words) ([2]; including lung carcinoma cell and hematopoetic malignancies): inhibit cell growth and to induce apoptosis
- Chemopreventative activity (in words) ([3]; against a number of malignancies): potent chemopreventative agent
- Tumor regression (in words) ([3]; in vivo): capable of tumor regression in vivo
- Effect on tumor formation and tumor growth (in words) ([3]; via apoptosis): inhibit tumor formation and tumor growth via apoptosis
- Major toxicity seen in the clinic [4]: night vision impairment

SMILES: O=c1[nH]cc(F)c(=O)[nH]1 [5FU]
- Induction of apoptosis in human carcinoma cells (in words) [5]: induce apoptosis

SMILES: CC1=C(/C=C/C(C)=C\C=C\C(C)=C\C(=O)Nc2ccc(O)cc2)C(C)(C)CCC1 [9-cis 4-HPR, reference compound]
- Fold induction of apoptosis, internal positive control (cont.) ([6]; 24 hrs, 10 uM, 1440 min): 2 fold
- fold induction at 10 µM ([6]; ZR-75-1, 24 h, 24 hrs, 10 uM, read-out: Fold induction of apoptosis, internal positive control (cont.)): 1
- Fold induction of apoptosis, internal positive control (cont.) ([7]; 48 hrs, 2880 min): 10 fold
- Fold induction of apoptosis, internal positive control (cont.) ([7]; 72 hrs, 4320 min): 12 fold
- fold induction at 10 µM ([7]; MDA435, 48 h, 48 hrs, read-out: Fold induction of apoptosis, internal positive control (cont.)): 15
- fold induction at 10 µM ([7]; MDA435, 72 h, 72 hrs, read-out: Fold induction of apoptosis, internal positive control (cont.)): 19
- fold induction at 10 µM ([8]; 24 hrs): 8
- fold induction at 10 µM ([8]; 48 hrs): 9
- fold induction at 10 µM ([8]; 72 hrs): 5
- fold induction at 10 µM ([9]; 24 hrs): 1
- fold induction at 10 µM ([9]; 48 hrs): 15
- fold induction at 10 µM ([9]; 72 hrs): 25

SMILES: CC1=C(/C=C/C(C)=C\C=C\C(C)=C\C(=O)O)C(C)(C)CCC1 [9-cis RA]
- Tumor regression (in words) ([3]; 9-cis RA and its analogs): cause tumor regression
- Binding to RXR (in words) [10]: bind
- Binding to RAR (in words) [11]: bind

SMILES: CC1=C(/C=C/C(C)=C/C=C/C(C)=C\C(=O)O)C(C)(C)CCC1 [13-cis RA]
- Ability to induce apoptosis (in words) [2]: very limited
- Differentiation of certain tumor cells (in words) [2]: cause differentiation of certain tumor cells in vitro

SMILES: C/C(=C/C=C/C(C)=C/C(=O)O)c1cc(C(F)(F)F)cc(C(F)(F)F)c1 [(2E,4E,6Z)-7-[3,5-bis(trifluoromethyl)phenyl]-3,7-dimethyl-2,4,6-heptatrienoic acid]
- fold induction at 1 µM [6, 13]: 1
- fold induction at 3.3 µM [6, 13]: 1
- fold induction at 10 µM ([6]; ZR-75-1, 24 h, 24 hrs, 10 uM, read-out: Fold induction of apoptosis compared to no drug control): 1
- fold induction at 1 µM [6, 14]: 1
- fold induction at 3.3 µM [6, 14]: 1
- fold induction at 10 µM ([6]; ZR-75-1, 48 h, 48 hrs, 10 uM, read-out: Fold induction of apoptosis compared to no drug control): 1
- fold induction at 1 µM [6, 15]: 1
- fold induction at 3.3 µM [6, 15]: 1
- fold induction at 10 µM ([6]; ZR-75-1, 72 h, 72 hrs, 10 uM, read-out: Fold induction of apoptosis compared to no drug control): 2
- fold induction at 1 µM [7, 16]: 1
- fold induction at 3.3 µM [7, 16]: 1
- fold induction at 10 µM [7, 16]: 1
- fold induction at 1 µM [7, 17]: 1
- fold induction at 3.3 µM [7, 17]: 1
- fold induction at 10 µM [7, 17]: 1
- fold induction at 1 µM [7, 18]: 1
- fold induction at 3.3 µM [7, 18]: 1
- fold induction at 10 µM [7, 18]: 2
- Induction of apoptosis (in words) ([12]; 72 h, compared with the corresponding amide): induces considerably lower amounts apoptosis only after 72 h
- Activity against ER- and ER+ carcinoma cells (induction of apoptosis) ([12]; ER- and ER+ carcinoma cells): inactive

SMILES: COc1cccc2c1C(=O)c1c(O)c3c(c(O)c1C2=O)C[C@@](O)(C(=O)CO)C[C@@H]3O[C@H]1C[C@H](N)[C@H](O)[C@H](C)O1 [Adriamycin]
- Induction of apoptosis in human carcinoma cells (in words) [5]: induce apoptosis

SMILES: CC1=C(/C=C/C(C)=C/C=C/C(C)=C/C(=O)O)C(C)(C)CCC1 [All-trans RA]
- Ability to induce apoptosis (in words) [2]: very limited
- Differentiation of certain tumor cells (in words) [2]: cause differentiation of certain tumor cells in vitro

SMILES: CC(=O)O[C@H]1C(=O)[C@@]2(C)[C@H]([C@H](OC(=O)c3ccccc3)[C@]3(O)C[C@H](OC(=O)[C@H](O)[C@@H](NC(=O)c4ccccc4)c4ccccc4)C(C)=C1C3(C)C)[C@]1(OC(C)=O)CO[C@@H]1C[C@@H]2O [Taxol]
- Induction of apoptosis in human carcinoma cells (in words) [5]: induce apoptosis

Source: patent US6310247A, “7-aryl-6(Z)-heptatrienoic acid retinamides” (Hoffmann-LA Roche Inc., priority 1999, dated 2001)
